{"source": "patent US20060142566A1", "about": "“Enantioselective process for the preparation of both enantiomers of 10,11-dihydro-10-hydroxy-5h-dibenz[b,f]azepine-5-carboxamide and new crystal forms thereof” (priority 2002, published 2006)", "format_in_all_cases": "physicochemical", "key": {"[1]": {"test": "hygroscopicity of the crystal modifications"}, "[2]": {"test": "stability of the crystal forms (bulk stability, thermodynamic stability)", "details": "solid form, storage"}, "[3]": {"test": "solubility in organic and aqueous solutions", "details": "compared to modification B"}}, "data": [{"smiles": "NC(=O)N1c2ccccc2CC(O)c2ccccc21", "note": "(single isomer, unassigned) [modification B, (R)- or (S)-10,11-dihydro-10-hydroxy-5H-dibenz[b,f]azepine-5-carboxamide]", "values": [{"measurement": "hygroscopicity", "setting": "[1]", "result": "Neither modification A nor modification B are hygroscopic"}, {"measurement": "stability of crystal form (thermodynamic)", "setting": "[2]", "result": "thermodynamically stable crystalline form"}]}, {"smiles": "NC(=O)N1c2ccccc2CC(O)c2ccccc21", "note": "(single isomer, unassigned) [modification A, (R)- or (S)-10,11-dihydro-10-hydroxy-5H-dibenz[b,f]azepine-5-carboxamide]", "values": [{"measurement": "solubility", "setting": "[3]", "result": "better soluble in organic and aqueous solutions than modification B"}, {"measurement": "hygroscopicity", "setting": "[1]", "result": "Neither modification A nor modification B are hygroscopic"}]}]}
